“Also recorded” adds a separate entry of the source. Like-named read-outs stand apart in the source and are kept apart here.
What was measured:
[1] = test system: patient-derived triple-negative breast cancer (TNBC) xenografts; design: method as in PMID 32075943; conditions: cited from earlier work
[2] = cited from earlier work
tumor cells = test system: tumor cells; design: method as in PMID 12234607; conditions: cited from earlier work
drug-efflux pumps = conditions: cited from earlier work
[3] = test system: BRCA1-deficient MX-1 TNBC xenografts; design: method as in PMID 9685056; conditions: total dose of 25 and 75 mg (57 and 170 μmol)/kg, four times at 4-day intervals, at 28 days; cited from earlier work
[4] = test system: BRCA1-deficient MX-1 TNBC xenografts; assay: Antitumor activity of PEG-Exa in the MX-1 murine xenograft, alone and combined with TLZ or VX970; format: in vivo, female scid mice
Description: Animals were housed at Murigenics.
To assess the interaction of the drug combination, we used an additivity index determined as TGcalc/TGobsd where […] and TGcalc is the product of TGobsd values of the individual drugs. Here, an index <1 indicates infra-additive, an index of 1 indicates additivity and an index >1 indicates a supra-additive or synergistic interaction.
We measured the effects of a combination of PEG-Exa with the PARPi TLZ and the ATRi VX970 on growth of MX-1 xenografts. […] To assess the interaction of a drug combination, we used an additivity index ([28]) determined as TGcalc/TGobsd where TGcalc is the product of TGobsd values of the individual drugs and TGobsd is the observed tumor growth in the presence of both drug. Here, an index <1 indicates infra-additive, an index of 1 indicates additivity and an index >1 indicates a supra-additive or synergistic interaction.

[5] = test system: relapsed small cell lung cancer; design: method as in PMID 33848478; conditions: combination of topotecan with the ATRi VX-970, 5-day interval of a 21-day cycle; cited from earlier work
[6] = VX970 64 μmol/kg PO, 4 consecutive days a week, alone
[7] = single intraperitoneal doses of 10 and 15 μmol/kg

For `CCc1c2c(nc3ccc(OC(=O)N4CCC(N5CCCCC5)CC4)cc13)-c1cc3c(c(=O)n1C2)COC(=O)[C@]3(O)CC` [irinotecan], the responsive xenografts ([1]; xenografts containing both biomarkers) is listed as 100%, the response rate ([1]; xenografts with BRCAness) is listed as 50% and the response rate ([1]; xenografts with high SLFN11) is listed as 75%.

In the case of `CC[C@@]1(O)C(=O)OCc2c1cc1n(c2=O)Cc2c-1nc1cc(F)c(C)c3c1c2[C@@H](N)CC3` [Exa, exatecan], the t1/2 ([2]; in humans) is listed as “approximately 10 hours”, the “increase of inhibitory potency upon prolonged exposure” value (tumor cells) is listed as “about 80 fold” and the “substrate for drug-efflux pumps” value (drug-efflux pumps) is listed as “does not appear to be a substrate”. For the same compound, the “effect on MX-1 TNBC xenografts” value [3] was “regression”.

Work on `Cn1ncnc1[C@H]1c2n[nH]c(=O)c3cc(F)cc(c23)N[C@@H]1c1ccc(F)cc1` [TLZ, talazoparib] yielded a TGobsd ([4]; 0.4 μmol (0.15 mg)/kg orally every day, Fig. 4A) of 0.71.

In the case of `CNCc1ccc(-c2cc(-c3nc(-c4ccc(S(=O)(=O)C(C)C)cc4)cnc3N)on2)cc1` [VX970], the “AUC of median MX-1 Tumor volume” value ([4]; VX970 16 μmol/kg alone) is reported as 0.98 Fraction of vehicle control, the “AUC of median MX-1 Tumor volume” value ([4]; VX970 32 μmol/kg alone) is reported as 0.96 Fraction of vehicle control and the TGI [4, 6] is reported as 0. The “TGobsd, AUC of median MX-1 Tumor volume” value [4, 6] was 1.04 Fraction of vehicle control and the “effect on growth of MX-1 xenografts” value ([4]; VX970 alone, 64 μmol/kg for 4 consecutive days a week) was “do not affect tumor growth; also recorded: no effect”.

In the case of “PEG40kDa-[exatecan]4 (Mod = 4-Cl-C6H4-SO2-) [3A]”, the “potency in growth suppression relative to PLX038A (PEG-SN-38)” value ([4]; […] PEG-Exa nearly identical to 15 μmol/kg PLX038A) is reported as “approximately 6 fold”, the “dose lower than dose of free Exa required to suppress MX-1 xenografts” value ([4]; single 10 μmol/kg versus total 57 μmol/kg free Exa (ref 26)) is reported as 6 fold and the “dose lower than dose of free Exa required to suppress MX-1 xenografts” value ([4]; single 10 μmol/kg versus total 170 μmol/kg free Exa (ref 26)) is reported as 18 fold. For the same compound, the “duration of tumor growth suppression” value ([4]; single dose of 10 μmol/kg) was “over 40 days”, the “tumor growth of MX-1 xenografts” value ([4]; single dose of 10 μmol/kg) was “complete suppression of tumor growth” and the “duration of complete growth inhibition” value [4, 7] was > 48 days. The growth of tumors [4, 7] was “complete growth inhibition”.

For `CC[C@@]1(O)C(=O)OCc2c1cc1n(c2=O)Cc2cc3c(CN(C)C)c(O)ccc3nc2-1` [topotecan], the ORR [5] is listed as 36%.

In the case of `CCc1c2c(nc3ccc(O)cc13)-c1cc3c(c(=O)n1C2)COC(=O)[C@]3(O)CC` [SN-38], the “apparent t1/2” value ([2]; SN-38 formed from CPT-11) is listed as “approximately 12 hours”.
